Assay results as given in patent US8552161B2, “Saponin compounds, methods of preparation thereof, use thereof and pharmaceutical compositions” (Uniwersytet W Bialymstoku, priority 2009, dated 2013).

How the values were obtained:
[1] = tested on: T-lymphoblastic leukemia cell line CEM; assay: Calcein AM cytotoxicity assay, CEM; assay type: cell-based; details: Calcein AM assay, 72 h; means ± SD, three independent experiments in triplicate
Description: (§1) Stock solutions (10 mmol/l) of the tested compounds were prepared by dissolving relevant quantity of the substance in DMSO. […] Calcein AM was obtained from Molecular Probes (Invitrogen Corporation, CA, USA).
(§2) All cell lines were cultured in DMEM medium (Sigma, Mo., USA). Medium was supplemented with 10% heat-inactivated fetal bovine serum, 2 mmol/l L-glutamine and 1% penicillin-streptomycin. The cell lines were maintained under standard cell culture conditions at 37° C. and 5% CO2 in a humid environment. Cells were subcultured twice or three times a week using the standard trypsinization procedure.
(§3) All cell lines were cultured in DMEM medium (Sigma, Mo., USA) supplemented with 10% fetal calf serum, 2 mM glutamine, 100 U/ml penicillin and 100 μg/ml streptomycin, at 37° C. in a fully humidified atmosphere containing 5% CO2. Suspensions of these lines (ca. 1.0×10^5 cells/ml) were placed in 96-well microtitre plates and after 3 h of stabilization the tested compounds were added in serially diluted concentrations. Saponins were dissolved in dimethylsulfoxide (DMSO) before addition to cultures. Control cultures were treated with DMSO alone. The final concentration of DMSO in the reaction mixtures never exceeded 0.6%. Four-fold dilutions of the intended test concentration were added at time zero in 20 μl aliquots to the microtitre plate wells. Usually, each test compound was evaluated at six 4-fold dilutions and in routine testing; the highest well concentration was 50 μM, although this varied in a few cases, depending on the test compound. After 72 h of culture, the cells were incubated with Calcein AM solution (Molecular Probes) for 1 h. The fluorescence of viable cells was quantified using a Fluoroscan Ascent instrument (Microsystems).

[2] = tested on: breast carcinoma cell line MCF7; assay: Calcein AM cytotoxicity assay, MCF7; assay type: cell-based, human; details: Calcein AM assay, 72 h; means ± SD, three independent experiments in triplicate
Description: as §1, §2, §3

[3] = tested on: malignant melanoma cell line G-361; assay: Calcein AM cytotoxicity assay, G-361; assay type: cell-based, human; details: 72 h, means ± SD, three independent experiments in triplicate
Description: as §1, §2, §3

[4] = tested on: cervical carcinoma cell line HeLa; assay: Calcein AM cytotoxicity assay, HeLa; assay type: cell-based; details: 72 h, means ± SD, three independent experiments in triplicate
Description: as §1, §2, §3

[5] = tested on: lung carcinoma cell line A549; assay: Calcein AM cytotoxicity assay, A549; assay type: cell-based, human; details: 72 h, means ± SD, three independent experiments in triplicate, read-out: IC50, A 549
Description: as §1, §2, §3

[6] = tested on: normal human fibroblasts BJ; assay: Calcein AM cytotoxicity assay, normal fibroblasts BJ; assay type: cell-based; details: 72 h, means ± SD, three independent experiments in triplicate
Description: as §1, §2, §3

caspase-3/7 in CEM cells = assay: Activity of caspases-3/7 in treated CEM cells (Ac-DEVD-AMC substrate); assay type: cell-based; details: for activity of caspases-3/7 compared with untreated control: 24 h, 3 (1; 2.5; 5 μM), 6 (0.1; 0.25; 0.5 μM)
Description: The CEM cells treated with the novel compounds were harvested by centrifugations and homogenized in an extraction buffer (10 mM KCl, 5 mM HEPES, 1 mM EDTA, 1 mM EGTA, 0.2% CHAPS, inhibitors of proteases, pH 7.4) on ice for 20 min. The homogenates were clarified by centrifugation at 10,000 g for […] at 4° C., the proteins were quantified by the Bradford method and diluted to the same concentration. Lysates were then incubated for 1 h with […] Ac-DEVD-AMC as a substrate (Sigma-Aldrich) in an assay buffer (25 mM PIPES, 2 mM EGTA, 2 mM MgCl2, 5 mM DTT, pH 7.3). For negative controls, the lysates were supplemented with […] Ac-DEVD-CHO as a caspase-3/7 inhibitor (Sigma-Aldrich). The fluorescence of the product was measured using a Fluoroskan Ascent microplate reader (Labsystems) at 346/442 nm (ex/em). Here, we determined the activity of caspase-3/7 in CEM cells exposed to 3, 6 or 7 using a fluorogenic substrate Ac-DEVD-AMC and/or caspase 3/7 inhibitor […]. Cells were treated in a dose-dependent manner with compounds 3 (1; 2.5; 5 μM), 6 (0.1; 0.25; 0.5 μM) and 7 (5; 7.5; 10 μM).

CEM cells = assay: Flow cytometry cell cycle and apoptosis (subG1) analysis; assay type: cell-based; details: for distribution of CEM cells in cell cycle phases (FIG. 2): increasing concentrations
Description: The leukemia cancer CEM cells were trypsinized, seeded in 6 well plates, and immediately incubated with the respective compounds. […] Triton X-100, and 50 μg/ml propidium iodide in PBS. DNA content was assessed with a flow cytometer (Cell Lab Quanta SC—MPL, Beckman Coulter, Calif., USA). In a histogram analysis, distribution of cells into the subG1 (“apoptotic cells”), the G0/G1, S and the G2/M peak was quantified using software MultiCycle AV (Phoenix Flow Systems, CA, USA).

leukemia cells (CEM) = assay: Western blot analysis of apoptosis related proteins; assay type: cell-based; details: 24 h
Description: The cells were seeded in a density 2.2×10^4 cells/cm^2 using culture medium in 100-mm culture dishes. Immediately the cells were treated by novel saponins: 3 (1; 2.5; 5 μM), 6 (0.1; 0.25; 0.5 μM) and 7 (5; 7.5; 10 μM). DMSO was used as a vehicle for controls. After 24 h treatment, the cells were washed three times with cold PBS (10 mM, pH 7.4) and lysed in ice-cold protein extract RIPA buffer (20 mM Tris-HCl, pH 7.4, 5 mM EDTA, 2 mM EGTA, 100 mM NaCl, 2 mM NaF, 0.2% Nonidet P-40, 30 mM PMSF, 1 mM DTT, […] of aprotinin and leupeptin). The lysate was collected into microfuge tube and incubated on ice for 1 h. It was then cleared by centrifugation at 10,000×g for […] at 4° C., and supernatant was collected, aliquoted, and stored at −80° C. Proteins in lysates were quantified by the Bradford method and then diluted with Laemmli electrophoresis buffer. Proteins were then separated on 10% or 12% SDS-polyacrylamide gels, transferred onto nitrocellulose membranes (Bio-Rad Laboratories, CA, USA) and stained with Ponceau S to check equal protein loading. The membranes were blocked with 5% (w/v) non-fat dry milk and 0.1% Tween-20 in PBS for 2 h and probed with the specific primary antibodies overnight. After washing in PBS and PBS with 0.1% Tween-20, the membranes were probed with horseradish peroxidase-conjugated secondary antibodies and visualized with chemiluminescent detection reagent West Pico Supersignal (Thermo Fisher Scientific, Rockford, USA). To confirm equal protein loading, immunodetection was performed with the anti-α-tubulin monoclonal antibody. The experiments were repeated three times. The protein expressions in treated cells were compared to untreated controls.

| SMILES | IC50 [1] [nM] | IC50 [2] [nM] | IC50 [3] [nM] | IC50 [4] [nM] | IC50 [5] [nM] | IC50 [6] [nM] | activity of caspases-3/7 compared with untreated control (caspase-3/7 in CEM cells) | caspase-3/7 activity after treatment with higher concentrations (caspase-3/7 in CEM cells) | subG1 phase of the cell cycle (apoptotic cells) (CEM cells; CEM cell line after treatment) | distribution of CEM cells in cell cycle phases (FIG. 2) (CEM cells) | Apoptosis subG1 (CEM cells; CEM, 24 h, 0.5 μM) [%] | Cell cycle distribution G0/G1 (CEM cells; CEM, 24 h, 0.5 μM) [%] | Cell cycle distribution G2/M (CEM cells; CEM, 24 h, 0.5 μM) [%] | Cell cycle distribution S (CEM cells; CEM, 24 h, 0.5 μM) [%] | PARP (Western blot) (leukemia cells (CEM); dose-dependent (FIG. 5)) | caspase-3 (Western blot) (leukemia cells (CEM); dose-dependent (FIG. 5)) | antiapoptotic Bcl-2 protein (leukemia cells (CEM); dose-dependent (FIG. 5)) | expression of tumour suppressor protein p53 (leukemia cells (CEM); dose-dependent (FIG. 5)) | phosphorylation of pRb S780 (leukemia cells (CEM); same concentrations (FIG. 5)) |
| --- | --- | --- | --- | --- | --- | --- | --- | --- | --- | --- | --- | --- | --- | --- | --- | --- | --- | --- | --- |
| COc1ccc(C(=O)O[C@H]2[C@H](O[C@@H]3[C@@H](OC(C)=O)[C@H](O[C@H]4C[C@H]5[C@@H]6CC=C7C[C@@H](O)CC[C@]7(C)[C@H]6CC[C@]5(C)[C@@]4(O)[C@H](C)COCc4ccccc4)OC[C@@H]3O)OC[C@@H](O)[C@@H]2O)cc1 [Compound 1, (20R)-21-Benzyloxy-20-methylpregn-5-ene-3β,16β,17α-triol 16-O-{2-O-(4-methoxybenzoyl)-β-D-xylopyranosyl-(1→3)-2′-O-acetyl-α-L-arabinopyranoside}] | 20 ± 1 | 600 ± 100 | 750 ± 80 | 200 ± 10 | 100 ± 50 | 300 ± 40 |  |  |  |  |  |  |  |  |  |  |  |  |  |
| COc1ccc(C(=O)OCC(C)C2(O)C(OC3OCC(O)C(OC4OCC(O)C(O)C4OC(=O)c4ccc(OC)cc4)C3OC(C)=O)CC3C4CC=C5CC(O)CCC5(C)C4CCC32C)cc1 [Compound 3, (20R)-21-O-(4-methoxybenzoyl)-20-methylopregn-5-ene-3β,16β,17α,21-tetraol 16-O-{2-O-(4-methoxybenzoyl)-β-D-xylopyranosyl-(1→3)-2′-O-acetyl-α-L-arabinopyranoside] |  |  |  |  |  |  | twofold enhancement | caspase-3/7 activity decreased | increase in subG1 phase | increased the number of S-phase and G2/M cells with concomitant decrease of G0/G1 cells in dose-dependent manner | 11 | 17 | 26 | 46 | cleavage of PARP | accumulation of caspase-3 |  |  |  |
| CCCCCCC(=O)OC[C@@H](C)[C@@]1(O)[C@@H](O[C@@H]2OC[C@H](O)[C@H](O[C@@H]3OC[C@@H](O)[C@H](O)[C@H]3OC(=O)c3ccc(OC)cc3)[C@H]2OC(C)=O)C[C@H]2[C@@H]3CC=C4C[C@@H](O)CC[C@]4(C)[C@H]3CC[C@@]21C [Compound 5, (20R)-21-O-Heptanoyl-20-methylpregn-5-ene-3β,16β,17α,21-tetraol 16-O-{2-O-(4-methoxybenzoyl)-β-D-xylopyranosyl-(1-3)-2′-O-acetyl-α-L-arabinopyranoside}] | 10 ± 2 | 400 ± 40 | 1280 ± 200 | 30 ± 2 | 20 ± 5 | 600 ± 70 |  |  |  |  |  |  |  |  |  |  |  |  |  |
| CCCCC(=O)OC[C@@H](C)[C@@]1(O)[C@@H](O[C@@H]2OC[C@H](O)[C@H](O[C@@H]3OC[C@@H](O)[C@H](O)[C@H]3OC(=O)c3ccc(OC)cc3)[C@H]2OC(C)=O)C[C@H]2[C@@H]3CC=C4C[C@@H](O)CC[C@]4(C)[C@H]3CC[C@@]21C [Compound 4, (20R)-21-O-pentanoyl-20-methylpregn-5-ene-3β,16β,17α,21-tetraol 16-O-{2-O-(4-methoxybenzoyl)-β-D-xylopyranosyl-(1→3)-2′-O-acetyl-α-L-arabinopyranoside}] | 60 ± 10 | 500 ± 70 | 390 ± 60 | 170 ± 10 | 160 ± 40 | 500 ± 60 |  |  |  |  |  |  |  |  |  |  |  |  |  |
| COc1ccc(C(=O)O[C@H]2[C@H](O[C@@H]3[C@@H](OC(C)=O)[C@H](O[C@H]4C[C@H]5[C@@H]6CC=C7C[C@@H](O)CC[C@]7(C)[C@H]6CC[C@]5(C)[C@@]4(O)[C@H](C)COC(=O)c4ccccc4)OC[C@@H]3O)OC[C@@H](O)[C@@H]2O)cc1 [Compound 2, (20R)-21-O-benzoyl-20-methylpregn-5-ene-3β,16β,17α,21-tetraol 16-O-{2-O-(4-methoxybenzoyl)-β-D-xylopyranosyl-(1→3)-2′-O-acetyl-α-L-arabinopyranoside}] | 70 ± 10 | 700 ± 100 | 1660 ± 900 | 240 ± 60 | 170 ± 40 | 100 ± 20 |  |  |  |  |  |  |  |  |  |  |  |  |  |
| C=CCCCCCCCCC(=O)OC[C@@H](C)[C@@]1(O)[C@@H](O[C@@H]2OC[C@H](O)[C@H](O[C@@H]3OC[C@@H](O)[C@H](O)[C@H]3OC(=O)c3ccc(OC)cc3)[C@H]2OC(C)=O)C[C@H]2[C@@H]3CC=C4C[C@@H](O)CC[C@]4(C)[C@H]3CC[C@@]21C [Compound 6, (20R)-21-O-(Undec-10-enoyl)-20-methylpregn-5-ene-3β,16β,17α,21-tetraol 16-O-{2-O-(4-methoxybenzoyl)-β-D-xylopyranosyl-(1→3)-O-acetyl-α-L-arabinopyranoside}] |  |  |  |  |  |  | twofold enhancement | caspase-3/7 activity decreased |  | increased the number of S-phase and G2/M cells with concomitant decrease of G0/G1 cells in dose-dependent manner |  |  |  |  | cleavage of PARP | accumulation of caspase-3 | increased | enhanced expression | increase of phosphorylation of pRb S780 |
